Here are results for two compounds from patent publication EP0748311B1, “THERAPEUTIC BENZONITRILES” (THE WELLCOME FOUNDATION LIMITED, priority 1994, dated 1995).

Series [1] has as its system HIV-1 (strain 3B). Kind of series: HIV assay: reversal of the cytopathic effect of HIV infection in MT4 cells (propidium iodide dye uptake). Conditions: Human immunodeficiency virus 1, 120 h, Anti-HIV-1 activity, day 5 post infection. Format: cell-based. Here is the method: Anti-HIV activity of compounds of the invention was determined using the method of Averett D.R., J.Virol. Methods, […], 23, 263-276, by measuring the ability of the compound to reverse the cytopathic effect of HIV infection. This was determined by a quantitative assessment of cell growth monitored at the fifth day post infection by a propidium iodide dye uptake test. MT4 cells were incubated with 100XTCID50 of HIV-1 (strain 3B) or HIV-2 (strain ZY) for one hour prior to addition of the compound in six different concentrations varying from 2 to 200 µM. The cells were allowed to incubate for five days at 37°C. On day 5, NP-40, a detergent, was added to a final concentration of 0.5% immediately prior to analysis. Cell number was determined using a method which measures the fluorescence of a dye (propidium iodide) which binds to DNA. Since the amount of DNA is directly proportional to cell number, this fluorescence assay is an indication of cell growth. While uninfected cells double in cell number several times during the five days duration of the assay, HIV-infected cells grow very little, if at all. A compound which reverses the cytopathic effect of HIV would allow for rapid cell growth, approaching that of the mock-infected cells. […]
On the technique in general: Cytopathic effects are the visible damage that an infection or toxin causes in cultured cells.

For series [2], the system named is male Lewis rats. Kind of series: Carrageenan pleurisy assay (4 hour). In kind it is in vivo. Conditions: 4 h after carrageenan, relative to solvent (vehicle) control animals; for % INHIBITION CELLS: inflammatory cells (neutrophils) in pleural exudate; for % INHIBITION EDEMA: pleural edema. The method, then:
The antiinflammatory activity of compounds of the invention was determined by the procedure of Vinegar, R. et al., Proc. Soc. Exp. Biol. Med., 1981, 168, 24-32, using male Lewis rats of 150 ± 20 grams. The carrageenan dose was 0.075 mg/rat. Pleural exudate was harvested four hours after injection of carageenan. Acute antiinflammatory activity was determined by inhibition of pleural edema and infammatory cells (neutrophils) from a negative (vehicle) control group.
Acute Anti-inflammatory Activity of Compounds in the 4 Hour Carrageenan Pleurisy Assay in Rats

Series [3] can be described thus: Cytotoxicity: inhibition of cell growth. Format: cell-based. Conditions: human. The method, then: Compounds of the invention were tested for the inhibition of growth of human T-cells (Molt 4), B-cells (IM9) and CEM cells by the method of Averett, D.R., J. Virol. Methods, 23, 263-276 (1989). Cells were grown as described in Prus, K.L., et al., Cancer Res., 50(6), 1817-1821 (1990).

Read-outs that look alike come from different tables or passages of the source.

Take `COc1cccc(S(=O)(=O)c2cccc(N)c2C#N)c1` [Example 2, 2-Amino-6-[(3-methoxyphenyl)sulfonyl]benzonitrile]: in series [1], the IC50 turned out to be 920 ± 40 nM.

In the case of `Cc1cc(C)cc(S(=O)(=O)c2cccc(N)c2C#N)c1` [Example 4, 2-Amino-6-[(3,5-dimethylphenyl)sulfonyl]benzontrile], the “% INHIBITION CELLS” value in series [2] (@ 25 MG/KG (IP)) was found to be 0%; in series [2] (@ 50 MG/KG (PO)) it was 29%. Besides, the “% INHIBITION EDEMA” value in series [2] (@ 25 MG/KG (IP)) was 5%; in series [2] (@ 50 MG/KG (PO)) it was 31%. For the same compound, the half-inhibitory concentration (IC50) in series [1] was found to be 14 ± 1 nM. Besides, the viability at 100 µM in series [3] (cem cells, read-out: % of Cells Surviving at 100 µM) was 70%; in series [3] (im9 cells, read-out: % of Cells Surviving at 100 µM), 97%; in series [3] (molt 4 cells, Molt4, read-out: % of Cells Surviving at 100 µM), 91%.

Usually IC50 stands for the concentration at which inhibition is half-maximal.
